Source: patent US8785486B2, “Imidazo[1,2-A]pyridine derivatives and their use as positive allosteric modulators of mGluR2 receptors” (Janssen Pharmaceuticals, Inc., priority 2007, dated 2014)

What was measured:
human mGluR2 receptor = molecular target: T1, human mGluR2 receptor (Homo sapiens, UniProt Q14416); assay: [35S]GTPγS binding assay (PAM assay) using membranes from cells transfected with the human mGluR2 receptor; format: biochemical; conditions: membranes of CHO cells with human mGluR2, glutamate at predetermined EC25 concentration, averages of duplicate values of 11-concentration response curves; for EC50: read-out: GTPγS - hR2 PAM pEC50 (converted)
T1 construct: expressed in transfected cells; host or cells: CHO cells
Description: The [^35S]GTPγS binding assay is a functional membrane-based assay used to study G-protein coupled receptor (GPCR) function whereby incorporation of a non-hydrolysable form of GTP, [^35S]GTPγS (guanosine 5′-triphosphate, labelled with […] ^35S), is measured.
CHO-cells were cultured to pre-confluence and stimulated with 5 mM butyrate for 24 hours, prior to washing in PBS, and then collection by scraping in homogenisation buffer (50 mM Tris-HCl buffer, pH 7.4, 4° C.). Cell lysates were homogenized briefly (15 s) using an ultra-turrax homogenizer. The homogenate was centrifuged at 23 500×g for 10 minutes and the supernatant discarded. The pellet was resuspended in 5 mM Tris-HCl, pH 7.4 and centrifuged again (30 000×g, 20 min, 4° C.). The final pellet was resuspended in 50 mM HEPES, pH 7.4 and stored at −80° C. in appropriate aliquots before use. Protein concentration was determined by the Bradford method (Bio-Rad, USA) with bovine serum albumin as standard.
Measurement of mGluR2 positive allosteric modulatory activity of test compounds in membranes containing human mGluR2 was performed using frozen membranes that were thawed and briefly homogenised prior to pre-incubation in 96-well microplates (15 μg/assay well, 30 minutes, 30° C.) in assay buffer (50 mM HEPES pH 7.4, 100 mM NaCl, 3 mM MgCl2, 50 μM GDP, 10 μg/ml saponin,) with increasing concentrations of positive allosteric modulator (from 0.3 nM to 50 μM) and either a minimal pre-determined concentration of glutamate (PAM assay), or no added glutamate. […] After addition of [^35S]GTPγS (0.1 nM, f.c.) to achieve a total reaction volume of 200 μl, microplates were shaken briefly and further incubated to allow [^35S]GTPγS incorporation on activation (30 minutes, 30° C.). The reaction was stopped by rapid vacuum filtration over glass-fibre filter plates (Unifilter 96-well GF/B filter plates, Perkin-Elmer, Downers Grove, USA) microplate using a 96-well plate cell harvester (Filtermate, Perkin-Elmer, USA), and then by washing three times with 300 μl of ice-cold wash buffer (Na2PO4.2H2O 10 mM, NaH2PO4.H2O 10 mM, pH=7.4). Filters were then air-dried, and 40 μl of liquid scintillation cocktail (Microscint-O) was added to each well, and membrane-bound [^35S]GTPγS was measured in a 96-well scintillation plate reader (Top-Count, Perkin-Elmer, USA). Non-specific [^35S]GTPγS binding is determined in the presence of cold 10 μM GTP. Each curve was performed at least once using duplicate sample per data point and at 11 concentrations.
The concentration-response curves of representative compounds of the present invention in the presence of added EC25 of mGluR2 agonist glutamate to determine positive allosteric modulation (PAM), were generated using the Prism GraphPad software (Graph Pad Inc, San Diego, USA). The curves were fitted to a four-parameter logistic equation (Y=Bottom+(Top-Bottom)/(1+10^((Log EC50−X)*Hill Slope) allowing determination of EC50 values. The EC50 is the concentration of a compound that causes a half-maximal potentiation of the glutamate response. This is calculated by subtracting the maximal responses of glutamate in presence of a fully saturating concentration of a positive allosteric modulator from the response of glutamate in absence of a positive allosteric modulator. The concentration producing the half-maximal effect is then calculated as EC50

T1 sequence (Q14416 19-872): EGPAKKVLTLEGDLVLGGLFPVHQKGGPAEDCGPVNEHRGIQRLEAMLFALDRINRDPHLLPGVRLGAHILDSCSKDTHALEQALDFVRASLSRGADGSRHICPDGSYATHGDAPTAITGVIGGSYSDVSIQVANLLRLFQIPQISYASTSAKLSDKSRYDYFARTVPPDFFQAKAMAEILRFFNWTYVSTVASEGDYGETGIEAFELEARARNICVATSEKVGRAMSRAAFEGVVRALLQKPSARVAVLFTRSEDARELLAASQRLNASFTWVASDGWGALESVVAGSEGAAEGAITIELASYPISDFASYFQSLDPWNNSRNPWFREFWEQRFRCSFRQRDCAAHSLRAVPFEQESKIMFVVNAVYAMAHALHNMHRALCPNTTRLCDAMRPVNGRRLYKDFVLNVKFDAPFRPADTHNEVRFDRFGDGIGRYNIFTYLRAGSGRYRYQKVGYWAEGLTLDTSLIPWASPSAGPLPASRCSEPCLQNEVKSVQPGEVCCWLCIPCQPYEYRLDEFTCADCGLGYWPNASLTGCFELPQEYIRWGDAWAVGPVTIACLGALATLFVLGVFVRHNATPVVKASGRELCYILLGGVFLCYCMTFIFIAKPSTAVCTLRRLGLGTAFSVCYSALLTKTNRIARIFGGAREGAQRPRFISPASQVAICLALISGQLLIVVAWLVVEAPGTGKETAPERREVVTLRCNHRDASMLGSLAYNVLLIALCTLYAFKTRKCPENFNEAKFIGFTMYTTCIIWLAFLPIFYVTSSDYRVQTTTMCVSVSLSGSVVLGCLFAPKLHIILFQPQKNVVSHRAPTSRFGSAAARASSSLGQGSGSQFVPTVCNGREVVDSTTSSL

GTPγS - hR2 PAM pEC50 (human mGluR2 receptor) | melting point [°C] | EC50 (human mGluR2 receptor) [nM] | SMILES
6.07 | 239 |  | N#Cc1c(N2CCN(c3ncccn3)CC2)ccn2c(CC(F)(F)F)cnc12 [Example 2, 7-(4-Pyrimidin-2-yl-piperazin-1-yl)-3-(2,2,2-trifluoro-ethyl)-imidazo[1,2-a]pyridine-8-carbonitrile]
 | 126.8 to 131 | 107 | CCCc1cnc2c(C#N)c(N3CCC(c4cccc(C(F)(F)F)c4)CC3)ccn12 [Example 5]
6.81 | 161 |  | CCCc1cnc2c(C#N)c(N3CCC(c4ccccc4)CC3)ccn12 [Example 6]
 | 201.1 | 316 | CCCc1cnc2c(C#N)c(N3CCC(O)(c4ccccc4)CC3)ccn12 [Example 8]
 | 159 | 316 | CCCc1cnc2c(C#N)c(-c3ccc(Oc4cccnc4C)cc3)ccn12 [Example 9]
 | 181.8 | 427 | CCCc1cnc2c(C#N)c(-c3ccc(Oc4ccnc(C)c4)cc3)ccn12 [Example 11]
6.30 | 150 |  | CCc1cnc2c(C#N)c(N3CCC(c4ccccc4)CC3)ccn12 [Example 12]
6.19 | 194.4 |  | CCCc1cnc2c(C#N)c(N3CCN(c4nc(C)cc(C)n4)CC3)ccn12 [Example 14]
6.01 | 148.2 |  | CCCc1cnc2c(C#N)c(N3CCN(c4ccccc4)CC3)ccn12 [Example 15]
 | 265 | 1000 | CCc1cnc2c(C#N)c(N3CCC(O)(c4ccccc4)CC3)ccn12 [Example 16]
5.64 | 231.4 |  | CCc1cnc2c(C#N)c(N3CCN(c4nc(C)cc(C)n4)CC3)ccn12 [Example 19]
 | 220 |  | N#Cc1c(N2CCN(c3ccccc3)CC2)ccn2c(-c3ccccc3)cnc12 [Example 20]
 | 176.4 |  | CCCc1cnc2c(C#N)c(N3CCN(c4ncccn4)CC3)ccn12 [Example 22]
 | 197.6 |  | CCc1cnc2c(C#N)c(-c3ccc(Oc4ccnc(C)c4)c(F)c3)ccn12 [Example 25]
 | 128.5 | 132 | N#Cc1c(N2CCC(c3ccccc3)CC2)ccn2c(CCCC(F)(F)F)cnc12 [Example 28, 7-(4-Phenyl-piperidin-1-yl)-3-(4,4,4-trifluoro-butyl)-imidazo[1,2-a]pyridine-8-carbonitrile]
 | 272.1 | 417 | N#Cc1c(N2CCC(O)(c3ccccc3)CC2)ccn2c(CC(F)(F)F)cnc12 [Example 30]
 | 139.3 | 81.3 | N#Cc1c(N2CCC(c3ccccc3F)CC2)ccn2c(CC(F)(F)F)cnc12 [Example 31]
 | > 300 | 81.3 | N#Cc1c(N2CCC(c3cccc(C(F)(F)F)c3)CC2)ccn2c(CC(F)(F)F)cnc12 [Example 32]
 | 186.5 | 61.7 | N#Cc1c(N2CCC(c3ccc(F)cc3F)CC2)ccn2c(CC(F)(F)F)cnc12 [Example 33]
6.35 | > 300 |  | Cc1cc(C)nc(N2CCN(c3ccn4c(CC(F)(F)F)cnc4c3C#N)CC2)n1 [Example 34]
 | 154.8 | 603 | FC(F)(F)Cc1cnc2c(Cl)c(CN3CCC(F)(c4ccccc4)CC3)ccn12 [Example 35]
 | 161.4 |  | FC(F)(F)Cc1cnc2c(Cl)c(CN3CCN(c4ncccn4)CC3)ccn12 [Example 36, 8-Chloro-7-(4-pyrimidin-2-yl-piperazin-1-ylmethyl)-3-(2,2,2-trifluoro-ethyl)imidazo[1,2-a]pyridine]

GTPγS - hR2 PAM pEC50 (human mGluR2 receptor) | melting point [°C] | EC50 (human mGluR2 receptor) [nM] | SMILES
 | 156.9 | 3020 | Fc1ccc(N2CCN(Cc3ccn4c(CC(F)(F)F)cnc4c3Cl)CC2)c(F)c1 [Example 37]
 | 181.2 |  | N#Cc1c(CN2CCC(O)(c3ccc(F)cc3)CC2)ccn2c(CC(F)(F)F)cnc12 [Example 38]
 | 145 | 1290 | N#Cc1c(CN2CCC(F)(c3ccccc3)CC2)ccn2c(CC(F)(F)F)cnc12 [Example 40]
 | 161.1 | 437 | Fc1ccccc1C1CCN(Cc2ccn3c(CC(F)(F)F)cnc3c2Cl)CC1 [Example 41]
 | 196 |  | COc1cccc(C2(O)CCN(Cc3ccn4c(CC(F)(F)F)cnc4c3C#N)CC2)c1 [Example 43]
 | 152 | 324 | N#Cc1c(CN2CCC(c3ccccc3F)CC2)ccn2c(CC(F)(F)F)cnc12 [Example 44]
 | 150.2 | 1740 | Fc1ccccc1N1CCN(Cc2ccn3c(CC(F)(F)F)cnc3c2Cl)CC1 [Example 46]
 | 267 | 229 | N#Cc1c(N2CCC(c3ccccc3)CC2)ccn2c(-c3ccc(F)cc3F)cnc12 [Example 47]
 | 145.4 | 93.3 | N#Cc1c(N2CCC(c3ccccc3)CC2)ccn2c(CCC3CC3)cnc12 [Example 48]
 | 220.7 | 195 | FC(F)(F)Cc1cnc2c(Cl)c(N3CCC(F)(c4ccccc4)CC3)ccn12 [Example 50, 8-Chloro-7-(4-fluoro-4-phenyl-piperidin-1-yl)-3-(2,2,2-trifluoro-ethyl)-imidazo[1,2-a]pyridine]
 | 263.1 | 158 | FC(F)(F)Cc1cnc2c(Cl)c(N3CCC(c4ccccc4)CC3)ccn12 [Example 51, 8-Chloro-7-(4-phenyl-piperidin-1-yl)-3-(2,2,2-trifluoro-ethyl)-imidazo[1,2-a]pyridine]
 | 155.4 | 240 | CC(C)(O)c1ccc(C2CCN(c3ccn4c(CC(F)(F)F)cnc4c3C#N)CC2)cc1 [Example 54]
 | 212.9 | 97.7 | N#Cc1c(N2CCC3(CC2)OCc2ccccc23)ccn2c(CC(F)(F)F)cnc12 [Example 58]
 | 289.8 | 166 | N#Cc1c(N2CCC(O)(c3ccccc3F)CC2)ccn2c(CC(F)(F)F)cnc12 [Example 62]
 | 189.3 | 389 | CC(C)(O)c1ccc(C2CCN(c3ccn4c(CC(F)(F)F)cnc4c3Cl)CC2)cc1 [Example 63]
 | 213.9 | 1550 | Cc1c(N2CCC(c3ccccc3)CC2)ccn2c(CC(F)(F)F)cnc12 [Example 64]
 | 234.7 | 178 | CC(C)(O)c1ccccc1C1CCN(c2ccn3c(CC(F)(F)F)cnc3c2Cl)CC1 [Example 65, 2-(2-{1-[8-Chloro-3-(2,2,2-trifluoro-ethyl)-imidazo[1,2-a]pyridin-7-yl]-piperidin-4-yl}-phenyl)-propan-2-ol]
 | 174.4 | 282 | FC(F)(F)Cc1cnc2c(Cl)c(N3CCC4(CC3)OCc3ccccc34)ccn12 [Example 66]
 | 227.5 | 145 | CC(C)(O)c1ccccc1C1CCN(c2ccn3c(CC(F)(F)F)cnc3c2C#N)CC1 [Example 67, 7-{4-[2-(1-Hydroxy-1-methyl-ethyl)-phenyl]-piperidin-1-yl}-3-(2,2,2-trifluoro-ethyl)-imidazo[1,2-a]pyridine-8-carbonitrile]
 | 164.2 |  | FC(F)(F)Cc1cnc2c(Cl)c(CN3CCC4(CC3)OCc3ccccc34)ccn12 [Example 123]
 |  | 794 | FC(F)(F)Cc1cnc2c(Cl)c(CN3CCC4(CC3)COc3ccccc3O4)ccn12 [Example 124]
 |  | 1780 | FC(F)(F)Cc1cnc2c(Cl)c(N3CCC4(CC3)CN(c3ccccc3)C4)ccn12 [Example 125]
